Measured values as given in patent publication US20250145642A1, “BICYCLIC HETEROARENES AND METHODS OF THEIR USE” (Kineta, Inc., priority 2021, published 2025).

Target: full-length human PIKFYVE (N-terminal GST-fusion) (Homo sapiens (Human), UniProt Q9Y2I7, L932S/Q1183K/Q995L/S1033A/S696N/T998S)
Test: PIKfyve biochemical assay (ADP-Glo Kinase assay, Carna Biosciences)
Conditions: ADP-Glo, full-length human GST-PIKFYVE, 10 μM to 3 nM; read-out: hPIKfyve IC50
Source text: (§1) PIKfyve Biochemical Assay. The biochemical PIKfyve inhibition assays were run by Carna Biosciences according to proprietary methodology based on the Promega ADP-Glo™ Kinase assay. A full-length human PIKFYVE [1-2098(end) amino acids and S696N, L932S, Q995L, T998S, S1033A and Q1183K of the protein having the sequence set forth in NCBI Reference Sequence No. NP_055855.2] was expressed as N-terminal GST-fusion protein (265 kDa) using baculovirus expression system. GST-PIKFYVE was purified by using glutathione sepharose chromatography and used in an ADP-Glo™ Kinase assay (Promega). Reactions were set up by adding the test compound solution, substrate solution, ATP solution and kinase solution, each at 4× final concentrations. Reactions were prepared with assay buffer (50 mM MOPS, 1 mM DTT, pH7.2), mixed, and incubated in black 384 well polystyrene plates for 1 hour at room temperature. ADP-Glo™ reagent was then added for 40 minutes, followed by kinase detection reagent for an additional 40 minutes. The kinase activity was evaluated by detecting relative light units on a luminescence plate reader. Samples were run in duplicate from 10 μM to 3 nM. […] IC50 values were calculated from concentration vs % inhibition curves by fitting to a four-parameter logistic curve.
as §1, with “The” for “PIKfyve Biochemical Assay. The”, “accession number” for “the protein having the sequence set forth in NCBI Reference Sequence No.”, “curve. […]” for “curve.”

Chain of full-length human PIKFYVE (N-terminal GST-fusion) (Q9Y2I7 whole entry S696N/L932S/Q995L/T998S/S1033A/Q1183K, the tested form may be a part): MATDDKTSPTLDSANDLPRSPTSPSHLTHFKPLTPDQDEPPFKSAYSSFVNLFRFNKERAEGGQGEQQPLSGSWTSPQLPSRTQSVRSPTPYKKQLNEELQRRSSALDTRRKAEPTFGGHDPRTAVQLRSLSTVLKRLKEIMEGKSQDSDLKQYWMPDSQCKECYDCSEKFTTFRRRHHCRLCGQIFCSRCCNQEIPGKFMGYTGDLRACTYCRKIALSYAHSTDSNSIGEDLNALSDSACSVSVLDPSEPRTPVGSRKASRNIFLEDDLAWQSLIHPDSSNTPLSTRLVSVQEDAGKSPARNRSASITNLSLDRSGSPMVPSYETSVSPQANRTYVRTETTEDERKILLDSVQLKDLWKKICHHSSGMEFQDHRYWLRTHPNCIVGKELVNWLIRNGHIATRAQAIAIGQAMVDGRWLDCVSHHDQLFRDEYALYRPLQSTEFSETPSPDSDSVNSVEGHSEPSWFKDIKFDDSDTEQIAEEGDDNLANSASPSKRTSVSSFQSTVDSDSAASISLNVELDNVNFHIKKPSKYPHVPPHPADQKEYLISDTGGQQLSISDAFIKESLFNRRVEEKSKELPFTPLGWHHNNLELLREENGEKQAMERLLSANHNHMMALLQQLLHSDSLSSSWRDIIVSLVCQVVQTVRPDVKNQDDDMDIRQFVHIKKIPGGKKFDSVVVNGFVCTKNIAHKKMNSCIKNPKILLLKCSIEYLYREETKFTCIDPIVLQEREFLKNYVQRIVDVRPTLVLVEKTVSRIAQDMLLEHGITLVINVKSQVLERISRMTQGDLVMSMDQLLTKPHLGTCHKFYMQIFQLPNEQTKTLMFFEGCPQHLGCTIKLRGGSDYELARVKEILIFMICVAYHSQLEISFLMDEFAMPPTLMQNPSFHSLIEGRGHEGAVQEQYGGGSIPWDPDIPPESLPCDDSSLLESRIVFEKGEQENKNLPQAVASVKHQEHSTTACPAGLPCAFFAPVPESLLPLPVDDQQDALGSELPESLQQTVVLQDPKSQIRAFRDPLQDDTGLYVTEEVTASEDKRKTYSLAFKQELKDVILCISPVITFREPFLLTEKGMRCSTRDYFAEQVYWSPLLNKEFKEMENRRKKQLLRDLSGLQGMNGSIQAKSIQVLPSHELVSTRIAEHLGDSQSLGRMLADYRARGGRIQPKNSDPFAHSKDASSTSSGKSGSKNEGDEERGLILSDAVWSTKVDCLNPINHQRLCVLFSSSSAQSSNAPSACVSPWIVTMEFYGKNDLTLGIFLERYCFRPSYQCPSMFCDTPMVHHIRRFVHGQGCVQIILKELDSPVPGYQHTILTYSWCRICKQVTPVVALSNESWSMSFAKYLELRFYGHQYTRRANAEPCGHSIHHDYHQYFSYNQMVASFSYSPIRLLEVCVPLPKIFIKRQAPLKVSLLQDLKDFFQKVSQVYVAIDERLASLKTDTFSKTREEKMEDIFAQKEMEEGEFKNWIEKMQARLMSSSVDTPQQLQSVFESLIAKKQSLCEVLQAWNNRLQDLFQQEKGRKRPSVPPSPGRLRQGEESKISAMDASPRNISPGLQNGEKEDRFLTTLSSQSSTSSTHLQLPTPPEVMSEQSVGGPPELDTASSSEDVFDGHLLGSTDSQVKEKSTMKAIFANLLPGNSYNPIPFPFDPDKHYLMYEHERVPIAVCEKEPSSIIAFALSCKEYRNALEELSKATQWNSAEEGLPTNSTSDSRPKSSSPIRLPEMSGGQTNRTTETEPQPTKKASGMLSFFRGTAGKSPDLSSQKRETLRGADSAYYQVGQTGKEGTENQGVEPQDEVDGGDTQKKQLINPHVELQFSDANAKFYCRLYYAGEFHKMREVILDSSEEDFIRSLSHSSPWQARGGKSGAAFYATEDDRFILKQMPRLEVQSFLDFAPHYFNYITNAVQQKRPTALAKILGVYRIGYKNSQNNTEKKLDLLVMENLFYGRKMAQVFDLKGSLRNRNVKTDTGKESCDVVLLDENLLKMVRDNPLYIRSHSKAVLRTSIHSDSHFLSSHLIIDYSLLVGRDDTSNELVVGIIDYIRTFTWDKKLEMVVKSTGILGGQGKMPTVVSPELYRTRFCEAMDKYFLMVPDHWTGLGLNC

Row | Structure (SMILES) | IC50 [nM]
1 | c1ccc(-n2cc(N3CCc4c(Oc5cccnc5)nc(N5CCOCC5)nc43)nn2)cc1 [Compound 69, 4-(7-(1-phenyl-1H-1,2,3-triazol-4-yl)-4-(pyridin-3-yloxy)-6,7-dihydro-5H-pyrrolo[2,3-d]pyrimidin-2-yl)morpholine] | 10 to 100
2 | c1cncc(N2CCc3c(N4Cc5ccccc5C4)nc(N4CCOCC4)nc32)c1 [Compound 80, 4-(4-(isoindolin-2-yl)-7-(pyridin-3-yl)-6,7-dihydro-5H-pyrrolo[2,3-d]pyrimidin-2-yl)morpholine] | 10 to 100
3 | Fc1cccc(N2CCc3c(-c4ccoc4)nc(N4CCOCC4)nc32)c1 [Compound 93, 4-(7-(3-fluorophenyl)-4-(furan-3-yl)-6,7-dihydro-5H-pyrrolo[2,3-d]pyrimidin-2-yl)morpholine] | 10 to 100
4 | c1ccc(N2CCc3c(C4CNC4)nc(N4CCOCC4)nc32)cc1 [Compound 115, 4-(4-(azetidin-3-yl)-7-phenyl-6,7-dihydro-5H-pyrrolo[2,3-d]pyrimidin-2-yl)morpholine] | 100 to 1000
5 | O=C(C1CC1)N1CCC(c2nc(N3CCOCC3)nc3c2CCN3c2ccccc2)C1 (centres unmarked) [Compound 118, cyclopropyl(3-(2-morpholino-7-phenyl-6,7-dihydro-5H-pyrrolo[2,3-d]pyrimidin-4-yl)pyrrolidin-1-yl)methanone] | < 10
6 | c1ccc(N2CCc3c(OCc4cccnc4)nc(N4CCOCC4)nc32)cc1 [Compound 25, 4-(7-phenyl-4-(pyridin-3-ylmethoxy)-6,7-dihydro-5H-pyrrolo[2,3-d]pyrimidin-2-yl)morpholine] | 10 to 100
7 | CN1CCC(c2nc(N3CCOCC3)nc3c2CCN3c2ccccc2)CC1 [Compound 112, 4-(4-(1-methylpiperidin-4-yl)-7-phenyl-6,7-dihydro-5H-pyrrolo[2,3-d]pyrimidin-2-yl)morpholine] | 10 to 100
8 | CN1CCC(N2CCc3c(OCc4cccnc4)nc(N4CCOCC4)nc32)CC1 [Compound 42, 4-(7-(1-methylpiperidin-4-yl)-4-(pyridin-3-ylmethoxy)-6,7-dihydro-5H-pyrrolo[2,3-d]pyrimidin-2-yl)morpholine] | > 10000
9 | c1cc(-c2nc(N3CCOCC3)nc3c2CCN3C2CCOCC2)ccn1 [Compound 95, 4-(4-(pyridin-4-yl)-7-(tetrahydro-2H-pyran-4-yl)-6,7-dihydro-5H-pyrrolo[2,3-d]pyrimidin-2-yl)morpholine] | 100 to 1000
10 | c1ccc(N2CCc3c(OCc4cccnn4)nc(N4CCOCC4)nc32)cc1 [Compound 27, 4-(7-phenyl-4-(pyridazin-3-ylmethoxy)-6,7-dihydro-5H-pyrrolo[2,3-d]pyrimidin-2-yl)morpholine] | 10 to 100
11 | O=C(c1ccccc1)N1CCc2c(Oc3cccnc3)nc(N3CCOCC3)nc21 [Compound 72, (2-morpholino-4-(pyridin-3-yloxy)-6H-pyrrolo[2,3-d]pyrimidin-7(6H)-yl)(phenyl)methanone] | 1000 to 10000
12 | Fc1cccc(N2CCc3c(C4CCOC4)nc(N4CCOCC4)nc32)c1 (centres unmarked) [Compound 94, 4-(7-(3-fluorophenyl)-4-(tetrahydro-furan-3-yl)-6,7-dihydro-5H-pyrrolo[2,3-d]pyrimidin-2-yl)morpholine] | 100 to 1000
13 | c1cncc(N2CCc3c(OCCC4CCCO4)nc(N4CCOCC4)nc32)c1 (centres unmarked) [Compound 31, 4-(7-(pyridin-3-yl)-4-(2-(tetrahydrofuran-2-yl)ethoxy)-6,7-dihydro-5H-pyrrolo[2,3-d]pyrimidin-2-yl)morpholine] | 10 to 100
14 | c1ccc(N2CCc3c(OCc4cncnc4)nc(N4CCOCC4)nc32)cc1 [Compound 14, 4-(7-phenyl-4-(pyrimidin-5-ylmethoxy)-6,7-dihydro-5H-pyrrolo[2,3-d]pyrimidin-2-yl)morpholine] | 10 to 100
15 | Cc1cccc(CN2CCc3c(Cl)nc(N4CCOCC4)nc32)c1 [Compound 41, 4-(4-chloro-7-(3-methylbenzyl)-6,7-dihydro-5H-pyrrolo[2,3-d]pyrimidin-2-yl)morpholine] | > 10000
16 | c1cncc(N2CCc3c(C4CCNCC4)nc(N4CCOCC4)nc32)c1 [Compound 108, 4-(4-(piperidin-4-yl)-7-(pyridin-3-yl)-6,7-dihydro-5H-pyrrolo[2,3-d]pyrimidin-2-yl)morpholine] | 1000 to 10000

Row | Structure (SMILES) | IC50 [nM]
17 | Fc1cccc(N2CCc3c(-c4ccncc4)nc(N4CCOCC4)nc32)c1 [Compound 104, 4-(7-(3-fluorophenyl)-4-(pyridin-4-yl)-6,7-dihydro-5H-pyrroolo[2,3-d]pyrimidin-2-yl)morpholine] | < 10
18 | CN1CC(COc2nc(N3CCOCC3)nc3c2CCN3c2cccnc2)C1 [Compound 39, 4-(4-((1-methylazetidin-3-yl)methoxy)-7-(pyridin-3-yl)-6,7-dihydro-5H-pyrrolo[2,3-d]pyrimidin-2-yl)morpholine] | 1000 to 10000
19 | c1ccc(N2CCc3c(-c4ccncc4)nc(N4CCOCC4)nc32)cc1 [Compound 92, 4-(7-phenyl-4-(pyridin-4-yl)-6,7-dihydro-5H-pyrrolo[2,3-d]pyrimidin-2-yl)morpholine] | 10 to 100
20 | c1cncc(N2CCc3c(OCC4CCCO4)nc(N4CCOCC4)nc32)c1 (centres unmarked) [Compound 23, 4-(7-(pyridin-3-yl)-4-((tetrahydrofuran-2-yl)methoxy)-6,7-dihydro-6H-pyrrolo[2,3-d]pyrimidin-2-yl)morpholine] | 100 to 1000
21 | Cn1nccc1-c1c[nH]c2c(-c3ccncc3)nc(N3CCOCC3)nc12 [Compound 141, 4-(7-(1-methyl-1H-pyrazol-5-yl)-4-(pyridin-4-yl)-5H-pyrrolo[3,2-d]pyrimidin-2-yl)morpholine] | 10 to 100
22 | CC(C)(C)OC(=O)N1CCC(c2nc(N3CCOCC3)nc3c2CCN3c2ccccc2)CC1 [Compound 110, tert-butyl 4-(2-morpholino-7-phenyl-6,7-dihydro-5H-pyrrolo[2,3-d]pyrimidin-4-yl)piperidine-1-carboxylate] | 10 to 100
23 | CN1CCn2ncc(-c3c[nH]c4c(-c5ccncc5)nc(N5CCOCC5)nc34)c2C1 [Compound 146, 4-(7-(5-methyl-4,5,6,7-tetrahydropyrazolo[1,5-a]pyrazin-3-yl)-4-(pyridin-4-yl)-5H-pyrrolo[3,2-d]pyrimidin-2-yl)morpholine] | 100 to 1000
24 | CC(C)(C)OC(=O)N1CCC(c2nc(N3CCOCC3)nc3c2CCN3c2cccnc2)CC1 [Compound 107, tert-butyl 4-(2-morpholino-7-(pyridin-3-yl)-6,7-dihydro-5H-pyrrolo[2,3-d]pyrimidin-4-yl)piperidine-1-carboxylate] | 100 to 1000
25 | c1cncc(N2CCc3c(C4CCCNC4)nc(N4CCOCC4)nc32)c1 (centres unmarked) [Compound 114, 4-(4-(piperidin-3-yl)-7-(pyridin-3-yl)-6,7-dihydro-5H-pyrrolo[2,3-d]pyrimidin-2-yl)morpholine] | 1000 to 10000
26 | OCCn1cc(-c2cccc(-n3cccn3)c2)c2nc(N3CCOCC3)nc(-c3ccncc3)c21 [Compound 149, 2-(7-(3-(1H-pyrazol-1-yl)phenyl)-2-morpholino-4-(pyridin-4-yl)-6H-pyrrolo[3,2-d]pyrimidin-5-yl)ethan-1-ol] | 100 to 1000
27 | Cc1nc(N2CCOCC2)nc2c1CCN2c1ccccc1 [Compound 45, 4-(4-methyl-7-phenyl-6,7-dihydro-5H-pyrrolo[2,3-d]pyrimidin-2-yl)morpholine] | 100 to 1000
28 | c1cncc(N2CCc3c(OCC4CCOCC4)nc(N4CCOCC4)nc32)c1 [Compound 151, 4-{4-[(oxan-4-yl)methoxy]-7-(pyridin-3-yl)-5H,6H,7H-pyrrolo[2,3-d]pyrimidin-2-yl}morpholine] | 100 to 1000
29 | CC(C)(C)OC(=O)N1CCC(COc2nc(N3CCOCC3)nc3c2CCN3c2cccnc2)C1 (centres unmarked) [Compound 33, tert-butyl 3-(((2-morpholino-7-(pyridin-3-yl)-6,7-dihydro-4H-pyrrolo[2,3-d]pyrimidin-4-yl)oxy)methyl)pyrrolidine-1-carboxylate] | 100 to 1000
30 | c1ncc(N2CCc3c(OCC4CCOCC4)nc(N4CCOCC4)nc32)cn1 [Compound 9, 4-(7-(pyrimidin-5-yl)-4-((tetrahydro-2H-pyran-4-yl)methoxy)-6,7-dihydro-5H-pyrrolo[2,3-d]pyrimidin-2-yl)morpholine] | 100 to 1000
31 | COc1cccc(N2CCc3c(OCC4CCCN(C)C4)nc(N4CCOCC4)nc32)c1 (centres unmarked) [Compound 13, 4-(7-(3-methoxyphenyl)-4-((1-methylpiperidin-3-yl)methoxy)-6,7-dihydro-5H-pyrrolo[2,3-d]pyrimidin-2-yl)morpholine] | 10 to 100

Same assay, conditions: values plotted in FIG. 7; read-out: PIKFYVE Biochemistry (IC50)

Row | Structure (SMILES) | IC50 [nM]
32 | O=c1c(CCOc2cccnc2)cc2ncncc2n1-c1ccccc1 | > 10000
